Source: ChEMBL document CHEMBL1124842, “Cyclohexane diester analogues of phorbol ester as potential activators of protein kinase C” (J Med Chem, 1990)

Assay: Inhibition of [3H]PDBu binding to murine brain PKC (protein kinase C)
Design: species or system Mus musculus

Row | SMILES | IC50 [µM]
1 | CCCCCCCC(=O)OC1CC[C@H](/C=C/CCO)CC1OC(=O)CCCCCCC (some centres undefined) | > 1000
2 | CCCCCCCC(=O)OC1CC[C@H](CO)CC1OC(=O)CCCCCCC (stereo in doubt; 20b) | 1000
3 | CCCCCCCC(=O)OC[C@H](CO)OC(=O)CCCCCCC | 5
4 | CCCCCCCCCCCCCC(=O)O[C@@H]1[C@@H](C)[C@@]2(O)[C@@H](C=C(CO)C[C@]3(O)C(=O)C(C)=C[C@@H]23)[C@@H]2C(C)(C)[C@]12OC(C)=O [PHORBOL MYRISTATE ACETATE] | 0.01
5 | CCCCCCCC(=O)OC1CC[C@H](/C=C/CO)CC1OC(=O)CCCCCCC (some centres undefined) | > 1000
6 | CCCCCCCC(=O)OC1CC[C@H](CO)CC1OC(=O)CCCCCCC (stereo in doubt; 20a) | > 1000

More lines, now with the values ahead:

Row | IC50 [µM] | SMILES
7 | > 1000 | O=C(OC1CC[C@H](/C=C/CCO)CC1OC(=O)c1ccccc1)c1ccccc1 (some centres undefined)
8 | > 1000 | O=C(OC1CC[C@H](/C=C/CO)CC1OC(=O)c1ccccc1)c1ccccc1 (some centres undefined)
9 | > 1000 | O=C(OC1CC[C@H](CO)CC1OC(=O)c1ccccc1)c1ccccc1 (some centres undefined)
